Assay results published in patent US20230286973A1, “PROTEIN SECRETION INHIBITORS” (KEZAR LIFE SCIENCES, priority 2020, published 2023).

Tests used:
[1] = tested on: PD1-ss+10aa/Gaussia Luciferase; test: Dox-Induced PD1-ss-Gluc Assay; assay type: cell-based; conditions: 24 hr Dox induction; 293FRT/TO cells; read-out: 24 hr Dox Inducible PD1ssGluc 293FRT/TO: Mean IC50
Summary of the method: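 Flp-In 293 T-REx, stable line; Tet-regulated PD1-ss+10aa fused to Gaussia luciferase; plated day prior; cpd + doxycycline in DMSO/media; 37 °C, 5% CO2.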

[2] = tested on: TNFα-FL/Gaussia Luciferase; test: Dox Induced TNFα-FL-Gluc Assay; assay type: cell-based; conditions: for IC50: 24 hr Dox induction, 293FRT/TO cells, read-out: 24 hr Dox Inducible TNFaFLGluc 293FRT/TO: Mean IC50; for 24 hr Dox Inducible TNFaFLGluc 293FRT/TO: TNF/PD1: ratio of TNFaFLGluc IC50 to PD1ssGluc IC50
Summary of the method: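 Compound was added with doxycycline to cells plated a day earlier, incubating at 37° C under 5% CO2. The reporter line is 293 T-REx expressing a TNFα (1-233)–Gaussia luciferase fusion under tetracycline-regulated control.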

[3] = tested on: HER3-ss+4aa/Gaussia Luciferase; test: Dox-Induced Her3-ss-Gluc Assay; assay type: cell-based; conditions: 24 hr Dox induction; 293FRT/TO cells; read-out: 24 hr Dox Inducible Her3(ss + 4)Gluc 293FRT/TO: Mean IC50
Summary of the method: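 Compounds were diluted in DMSO/media containing doxycycline. They were added to Flp-In 293 T-REx cells plated the previous day, then incubated at 37 °C under 5% CO2. These cells stably express, under T-REx control, Gaussia luciferase fused to the HER3 signal sequence plus 4 amino acids.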

[4] = tested on: IL-2-FL/Gaussia Luciferase; test: Dox Induced IL2-FL-Gluc Assay; assay type: cell-based; conditions: for IC50: 24 hr Dox induction, 293FRT/TO cells, read-out: 24 hr Dox Inducible IL2FLGluc 293FRT/TO: Mean IC50; for 24 hr Dox Inducible IL2FLGluc 293FRT/TO: IL2/PD1: ratio of IL2FLGluc IC50 to PD1ssGluc IC50
Summary of the method: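 Compounds in DMSO/medium with doxycycline were applied to a 293 T-REx stable line expressing an IL-2 (aa 1-153)–Gaussia luciferase fusion under tetracycline-regulated control, cells seeded one day earlier; incubation at 37 °C, 5% CO2. Structures drawn without stereochemistry were tested as stereoisomer mixtures.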

[5] = tested on: multiple myeloma cell line NCI-H929; test: H929 Cell Viability Assay; assay type: cell-based, human; conditions: Homo sapiens, NCI-H929, 48 h, NCI-H929 cells, Celltiter-Glo
Summary of the method: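 Luminescent CellTiter-Glo read-out of viability after a 48 h exposure (37° C, 5% CO2) of NCI-H929 myeloma cells to compound dilutions in RPMI 1640 plus 10% FBS. Data for structures drawn without stereochemistry refer to stereoisomer mixtures.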

[6] = tested on: multiple myeloma cell line U266B1; test: U266 Cell Viability Assay; assay type: cell-based, human; conditions: Homo sapiens, U-266, 48 h, U266B1 cells, Celltiter-Glo
Summary of the method: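 CellTiter-Glo luminescence was read after a 48 h compound exposure (37 °C, 5% CO2) of human U266B1 myeloma cells grown in 10% FBS-supplemented RPMI 1640. Data for structures shown without defined stereochemistry refer to stereoisomer mixtures.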

[7] = Liver Microsome Stability Assay (rat); conditions: rat liver microsomes, with NADPH, 1.0 uM compound
Protocol: (§1) Stability of a compound was assessed in the presence of liver microsomes from various sources—mouse, rat, monkey and human liver microsomes. 1.0 uM compound, 0.4% DMSO in 0.1 M Potassium Phosphate with 1.0 mg/mL liver microsomes, were incubated at 37° C. with or without 1 mM NADPH. The samples were quenched at 0, and 30 minutes.

[8] = Liver Microsome Stability Assay (mouse); conditions: mouse liver microsomes, with NADPH, 1.0 uM compound
Protocol: as §1

[9] = Liver Microsome Stability Assay (human); conditions: human liver microsomes, with NADPH, 1.0 uM compound
Protocol: as §1

[10] = Liver Microsome Stability Assay (monkey); conditions: monkey liver microsomes, with NADPH, 1.0 uM compound
Protocol: as §1

SMILES | IC50 [1] | IC50 [2] | IC50 [3] | IC50 [4] | EC50 [5] | EC50 [6] | Liver Microsome Stability (Multiple Species): Rat - % Remaining after 30 min w/NADPH [7] | Liver Microsome Stability (Multiple Species): Mouse - % Remaining after 30 min w/NADPH [8] | Liver Microsome Stability (Multiple Species): Human - % Remaining after 30 min w/NADPH [9] | Liver Microsome Stability (Multiple Species): Monkey - % Remaining after 30 min w/NADPH [10] | 24 hr Dox Inducible TNFaFLGluc 293FRT/TO: TNF/PD1 [2] | 24 hr Dox Inducible IL2FLGluc 293FRT/TO: IL2/PD1 [4]
CS(=O)(=O)N1CC(Oc2ccc(N3CCC[C@@H]3c3csc(NC(=O)c4cccn4Cc4ccnc(F)c4)n3)cc2)C1 [Compound A132, (R)-1-((2-fluoropyridin-4-yl)methyl)-N-(4-(1-(4-((1-(methylsulfonyl)azetidin-3-yl)oxy)phenyl)pyrrolidin-2-yl)thiazol-2-yl)-1H-pyrrole-2-carboxamide] | 57.3 nM | 1060 nM | 95 nM | 105 nM | 2520 nM | > 25000 nM | 47.1% | 34.6% | 15.1% | 8.42% | 18.5 | 1.8
CC(=O)N1CCC(Oc2ccc(N3CCC[C@@H]3c3csc(NC(=O)c4cccn4Cc4ccnc(F)c4)n3)c(C#N)c2)CC1 [Compound A133, (R)-N-(4-(1-(4-((1-acetylpiperidin-4-yl)oxy)-2-cyanophenyl)pyrrolidin-2-yl)thiazol-2-yl)-1-((2-fluoropyridin-4-yl)methyl)-1H-pyrrole-2-carboxamide] | 61 nM | 893 nM | 64.2 nM | 81.7 nM | 2010 nM | > 25000 nM | 1.42% | 0.98% | 0.61% | 0.15% | 14.6 | 1.3
CNC(=O)N1CCC(Oc2ccc(N3CCC[C@@H]3c3csc(NC(=O)c4cccn4Cc4ccnc(F)c4)n3)cc2)CC1 [Compound A136, (R)-4-(4-(2-(2-(1-((2-fluoropyridin-4-yl)methyl)-1H-pyrrole-2-carboxamido)thiazol-4-yl)pyrrolidin-1-yl)phenoxy)-N-methylpiperidine-1-carboxamide] | 59.6 nM | 1010 nM | 86.7 nM | 186 nM | 2410 nM | > 25000 nM | 15.7% | 2.63% | 15.6% | 0.44% | 16.9 | 3.1
O=C(Nc1nc([C@H]2CCCN2c2ccc(OC3CCS(=O)(=O)CC3)cc2)cs1)c1cccn1Cc1ccnc(F)c1 [Compound A138, (R)-N-(4-(1-(4-((1,1-dioxidotetrahydro-2H-thiopyran-4-yl)oxy)phenyl)pyrrolidin-2-yl)thiazol-2-yl)-1-((2-fluoropyridin-4-yl)methyl)-1H-pyrrole-2-carboxamide] | 125 nM | 1600 nM | 167 nM | 172 nM | 2570 nM | > 25000 nM | 37.2% | 25.2% | 25.1% | 6.25% | 12.8 | 1.4

The next compounds have a lower IC50 [1] than those just listed; values first:

IC50 [1] | IC50 [2] | IC50 [3] | IC50 [4] | EC50 [5] | EC50 [6] | Liver Microsome Stability (Multiple Species): Rat - % Remaining after 30 min w/NADPH [7] | Liver Microsome Stability (Multiple Species): Mouse - % Remaining after 30 min w/NADPH [8] | Liver Microsome Stability (Multiple Species): Human - % Remaining after 30 min w/NADPH [9] | Liver Microsome Stability (Multiple Species): Monkey - % Remaining after 30 min w/NADPH [10] | SMILES | 24 hr Dox Inducible TNFaFLGluc 293FRT/TO: TNF/PD1 [2] | 24 hr Dox Inducible IL2FLGluc 293FRT/TO: IL2/PD1 [4]
27.3 nM | 526 nM | 47.8 nM | 42.4 nM | 849 nM | > 25000 nM | 13.6% | 2.18% | 19.3% | 13.5% | O=C(Nc1nc([C@H]2CCCN2c2ccc(OCCO)cc2)cs1)c1cccn1Cc1ccnc(F)c1 [Compound A134, (R)-1-((2-fluoropyridin-4-yl)methyl)-N-(4-(1-(4-(2-hydroxyethoxy)phenyl)pyrrolidin-2-yl)thiazol-2-yl)-1H-pyrrole-2-carboxamide] | 19.3 | 1.6
15.2 nM | 512 nM | 34.2 nM | 52.5 nM | 692 nM | > 25000 nM | 57.9% | 56.5% | 67.1% | 32.1% | NC(=O)N1CCC(Oc2ccc(N3CCC[C@@H]3c3csc(NC(=O)c4cccn4Cc4ccnc(F)c4)n3)cc2)CC1 [Compound A135, (R)-4-(4-(2-(2-(1-((2-fluoropyridin-4-yl)methyl)-1H-pyrrole-2-carboxamido)thiazol-4-yl)pyrrolidin-1-yl)phenoxy)piperidine-1-carboxamide] | 33.6 | 3.4
32.2 nM | 566 nM | 51.5 nM | 61.4 nM | 948 nM | > 25000 nM | 24.2% | 1.78% | 4.35% | 2.57% | CN(C)C(=O)N1CCC(Oc2ccc(N3CCC[C@@H]3c3csc(NC(=O)c4cccn4Cc4ccnc(F)c4)n3)cc2)CC1 [Compound A137, (R)-4-(4-(2-(2-(1-((2-fluoropyridin-4-yl)methyl)-1H-pyrrole-2-carboxamido)thiazol-4-yl)pyrrolidin-1-yl)phenoxy)-N,N-dimethylpiperidine-1-carboxamide] | 17.6 | 1.9
20.3 nM | 460 nM | 37.1 nM | 58.3 nM | 687 nM | > 25000 nM | 41.9% | 26% | 30.1% | 10.7% | O=C(Nc1nc([C@H]2CCCN2c2ccc(OC3CCN(C(=O)CO)CC3)cc2)cs1)c1cccn1Cc1ccnc(F)c1 [Compound A139, (R)-1-((2-fluoropyridin-4-yl)methyl)-N-(4-(1-(4-((1-(2-hydroxyacetyl)piperidin-4-yl)oxy)phenyl)pyrrolidin-2-yl)thiazol-2-yl)-1H-pyrrole-2-carboxamide] | 22.6 | 2.9
